# Assay results taken from US20210069213A1, “COMPOSITION AND METHOD OF TREATMENT FOR DRY A.M.D. (AGE RELATED MACULAR DEGENERATION)” (EYE CO PTY LTD, priority 2018, published 2021).
# Entries after “also recorded” stand apart in the source; their conditions may differ.
# How the values were obtained:
# [1] = test system: Sprague-Dawley rats exposed to bright continuous light; assay: Light damage (photo-oxidative damage) model of dry AMD, corticosteroid treatment vs vehicle; type: in vivo; conditions: after photo-oxidative damage; FA compared with TA; listed as FA
# Method: All experiments conducted were in accordance with the ARVO Statement for the Use of Animals in Ophthalmic and Vision Research. Albino Sprague-Dawley (SD) rats aged from […] were exposed to bright continuous light (BCL) at 1000 lux. The rats were born and reared in dim cyclic light conditions (12 h light:12 h dark) with an ambient light level of approximately 5 lux. Exposure to BCL was conducted on animals aged between post-natal days (P) 90-150. Prior to BCL exposure, rats were dark adapted for a minimum of 15 h then transferred to individual cages designed to allow light to enter unimpeded. There were no areas of shadow in the cages; pupillary dilation was not performed. BCL exposure commenced consistently at 9:00 am, and was achieved using a cold-white fluorescent light source positioned above the cages (18 W, Cool White; TFC), at an intensity of approximately 1000 lux at the cage floor. BCL exposure was maintained over a period of 24 h, after which time the animals were immediately returned to dim cyclic conditions for the post-exposure period.
# Age-matched, dim-reared animals served as control samples.
# Animals were euthanatized by overdose of barbiturate administered by an intraperitoneal injection (60 mg/kg bodyweight; Valabarb; Virbac Animal Health, Regents Park, NSW, Australia).
# Eyes were oriented and embedded in O.C.T. compound (Tissue-Tek, Sakura, Japan) then snap frozen in liquid nitrogen and cryosectioned at […] Retinas for RNA extraction were immediately deposited in RNA stabilizer (RNAlater; Ambion, Austin, Tex.), prechilled on ice, and stored according to the manufacturer's instructions. RNA was then extracted from each sample. The samples were incubated at 4° C. overnight to allow adequate penetration of the preservative, and then stored at […] until required. The samples were processed in batches encompassing the entire time course, to ensure comparability. […]
# TUNEL labeling was used to quantify photoreceptor apoptosis in cryosections, during and after BCL, with a protocol published previously. […]
# [2] = target: T1, mineralocorticoid receptor (Homo sapiens, UniProt P08235); conditions: Table 1; hydrocortisone (cortisol) = 1; cited from earlier work
# T1 sequence (P08235 1-984): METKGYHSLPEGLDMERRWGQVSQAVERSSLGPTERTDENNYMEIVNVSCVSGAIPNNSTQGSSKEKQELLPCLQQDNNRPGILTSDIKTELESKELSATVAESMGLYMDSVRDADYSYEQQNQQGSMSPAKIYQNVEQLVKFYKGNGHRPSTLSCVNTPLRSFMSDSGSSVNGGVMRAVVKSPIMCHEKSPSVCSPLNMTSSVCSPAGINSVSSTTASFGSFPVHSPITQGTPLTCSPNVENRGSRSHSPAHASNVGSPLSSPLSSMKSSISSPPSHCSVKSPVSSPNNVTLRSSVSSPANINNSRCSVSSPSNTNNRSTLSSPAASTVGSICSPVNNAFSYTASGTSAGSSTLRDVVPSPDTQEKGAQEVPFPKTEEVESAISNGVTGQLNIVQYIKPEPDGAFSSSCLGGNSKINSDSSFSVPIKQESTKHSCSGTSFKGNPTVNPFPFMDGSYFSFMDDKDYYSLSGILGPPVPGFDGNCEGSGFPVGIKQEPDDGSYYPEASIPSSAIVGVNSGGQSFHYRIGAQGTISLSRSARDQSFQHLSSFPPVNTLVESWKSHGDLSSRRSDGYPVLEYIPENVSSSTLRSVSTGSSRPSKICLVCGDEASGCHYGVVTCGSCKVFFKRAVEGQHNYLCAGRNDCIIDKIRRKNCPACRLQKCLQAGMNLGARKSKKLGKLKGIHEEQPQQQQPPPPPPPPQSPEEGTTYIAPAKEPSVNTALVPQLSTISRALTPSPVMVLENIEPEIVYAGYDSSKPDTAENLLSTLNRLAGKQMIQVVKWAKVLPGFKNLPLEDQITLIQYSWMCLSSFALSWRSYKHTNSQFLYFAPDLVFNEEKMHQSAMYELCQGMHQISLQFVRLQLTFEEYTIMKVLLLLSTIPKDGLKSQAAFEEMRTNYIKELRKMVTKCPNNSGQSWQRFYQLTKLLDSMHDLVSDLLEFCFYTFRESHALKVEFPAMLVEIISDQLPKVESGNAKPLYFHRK
# [3] = test system: subject with bi-lateral GA; assay: Phase Ib study of intravitreal FA in patients with geographic atrophy; type: in vivo, human; conditions: single subject, 1 mg intravitreal
# Method: A. Phase Ib, Study of Safety and Tolerability of Intravitreal Fludrocortisone Acetate (FA) and Triamcinolone (TA) in Patients with Geographic Atrophy (GA)
# The identical protocol will be followed with TA.
# Part 1 involves a single participant to assess safety and tolerability of 1 mg/0.1 mL FA. This participant will be followed for up to 28 days and reviewed by a safety review committee prior to the recruitment of a further 2 participants treated with 1 mg/0.1 mL FA totalling in 3 participants in the first cohort.
# Visit 2 (Baseline)—All subjects: Unless specified, all ophthalmic procedures (including imaging) are to be performed on the Study eye only. 1. Verify that all inclusion/exclusion criteria are met, including the determination of eligibility by the PI. 2. Obtain information on any changes in medical health and/or the use of concomitant medications. 3. Collect vital signs pre- and post-dose. Vital signs will be measured within 1 hour prior to dosing for the pre-dose time point. Post-dose vital signs readings will be performed within 30 minutes after dosing. 4. Perform BCVA. 5. Perform LL-BCVA. 6. Perform a complete ophthalmic exam including slit-lamp exam of the cornea, iris, anterior chamber, lens (LOCS III if any opacity on the lens noted) and aqueous reaction (cells and flare), dilated fundus exam of the vitreous and retina and IOP measurement. 7. Perform the IVT injection of fludrocortisone acetate. 8. Monitor the study eye within 15 minutes' post injection. 9. Monitor for adverse events.
# FIGS. 2 to 6 show the results of injection of fludrocortisone into one subject according to the Phase lb study.
smiles,measurement,setting,value
"CC(=O)OCC(=O)[C@@]1(O)CC[C@H]2[C@@H]3CCC4=CC(=O)CC[C@]4(C)[C@@]3(F)[C@@H](O)C[C@@]21C [Fludrocortisone acetate, 9-α-Fiuoro-11 β. 17 α, 21-trihydroxy-4-pregnene-3, 20 dione acetate]",prevention of macrophage recruitment (IBA1),[1],more effective than TA; also recorded: superior
same,prevention of photoreceptor death / cell death (TUNEL),[1],more effective than TA; also recorded: superior
same,"retinal function (ERG, a- and b-wave amplitude)",[1],preserves retinal function; also recorded: superior
same,MR potency,[2],200
same,external eye exam,[3],all normal
same,slit lamp biomicroscopy,[3],"all normal, apart from a previous scar on the anterior chamber"
same,vitreous haze grading,[3],absent
same,toxicity,"[3]; left eye, day 28",no evidence of toxicity
same,visual acuity (VA),"[3]; left eye, day 28",improved visual acuity
